Test results as given in US20230051204A1, “ANTIMICROBIAL COMPOSITION CONTAINING WASP EXTRACT AS ACTIVE INGREDIENT” (priority 2021, published 2023).
Values joined by “and” are separate entries in the source; they are usually repeats but may differ in a detail not shown here. Identical values can stand only once.

Legend:
[1] = test system: Staphylococcus aureus KCTC 1916; test: Disc-paper clear zone test, antibacterial; assay type: cell-based; parameters: key: —: no clear zone; conditions: antibiotic 1 μg/disc; SA
Text: (§1) For evaluation of the antibacterial activities, the following strains were used: Escherichia coli KCTC 1682, Proteus vulgaris KCTC 2433, Pseudomonas aeruginosa KACC 10186, and Salmonella typhimurium KCTC 1926, which are Gram-negative bacteria, and Staphylococcus aureus KCTC 1916, Staphylococcus epidermidis ATCC 12228, and Listeria monocytogenes KACC 10550, Bacillus subtilis KCTC 1924, which are Gram-positive bacteria. Meanwhile, for evaluation of the antifungal activities, Saccharomyces cerevisiae IF0 0233 and Candida albicans KCTC 1940 that causes Candidiasis fungal infection were used.
(§2) First, for evaluation of the antibacterial activities, each bacterial strain was inoculated into nutrient broth (Difco Co., USA) and cultured at 37° C. for 24 hours. Then, each strain was adjusted to an O.D.600 of 0.1, and then 100 μl of each strain was plated on a Petri dish (90 mm, Green Cross, Korea) containing nutrient agar (Difco Co., USA) medium, and 5 μl of each extract sample added to sterile disc-paper (6.5 mm diameter, Whatsman No. 2) was added to each strain which was then incubated at 37° C. for 24 hours. For evaluation of the antifungal activities, each fungal strain was cultured using Sabouraud dextrose (Difco Co. USA) at 30° C. for 24 hours in the same manner as described above, and the antifungal activity of each extract sample was evaluated by measuring the size of the clear zone. As a control, each of the antibacterial agent ampicillin and the antifungal agent miconazole (Sigma Co., USA) was at a concentration of 1 μg/disc. The size of the clear zone was measured by measuring, in units of mm, the diameter of the part where growth was invisible with the naked eye, and was expressed as a representative result after three or more evaluations.
(§3) The antimicrobial activities of the fraction of each of the Vespa velutina nigrithorax, V. simillima simillima Smith and V. mandarinia Smith extracts, prepared in Example 4, were measured according to the same method as the antibacterial and antifungal activity evaluation described in Example 3.

[2] = test system: Salmonella typhimurium KCTC 1926; test: Disc-paper clear zone test, antibacterial; assay type: cell-based; parameters: key: —: no clear zone; conditions: antibiotic 1 μg/disc; ST
Text: as §1, §2, §3

[3] = test system: Pseudomonas aeruginosa KACC 10186; test: Disc-paper clear zone test, antibacterial; assay type: cell-based; parameters: key: —: no clear zone; conditions: antibiotic 1 μg/disc; PA
Text: as §1, §2, §3

[4] = test system: Staphylococcus epidermidis ATCC 12228; test: Disc-paper clear zone test, antibacterial; assay type: cell-based; parameters: key: —: no clear zone; conditions: antibiotic 1 μg/disc; SE
Text: as §1, §2, §3

[5] = test system: Escherichia coli KCTC 1682; test: Disc-paper clear zone test, antibacterial; assay type: cell-based; parameters: key: —: no clear zone; conditions: antibiotic 1 μg/disc; EC
Text: as §1, §2, §3

[6] = test system: Bacillus subtilis KCTC 1924; test: Disc-paper clear zone test, antibacterial; assay type: cell-based; parameters: key: —: no clear zone; conditions: antibiotic 1 μg/disc; BS
Text: as §1, §2, §3

[7] = test system: Proteus vulgaris KCTC 2433; test: Disc-paper clear zone test, antibacterial; assay type: cell-based; parameters: key: —: no clear zone; conditions: antibiotic 1 μg/disc; PV
Text: as §1, §2, §3

[8] = test system: Listeria monocytogenes KACC 10550; test: Disc-paper clear zone test, antibacterial; assay type: cell-based; parameters: key: —: no clear zone; conditions: antibiotic 1 μg/disc; LM
Text: as §1, §2, §3

[9] = test system: gram-positive bacteria, gram-negative bacteria and fungi; test: Disc-paper clear zone test, summary over the whole panel; assay type: cell-based; conditions: 1 μg/disc; span over the gram-positive and gram-negative bacteria; read-out: Clear zone size
Text: as §1
First, for evaluation of the antibacterial activities, each bacterial strain was inoculated into nutrient broth (Difco Co., USA) and cultured at 37° C. for 24 hours. […] For evaluation of the antifungal activities, each fungal strain was cultured using Sabouraud dextrose (Difco Co. USA) at 30° C. for 24 hours in the same manner as described above, and the antifungal activity of each extract sample was evaluated by measuring the size of the clear zone. […] The size of the clear zone was measured by measuring, in units of mm, the diameter of the part where growth was invisible with the naked eye, and was expressed as a representative result after three or more evaluations.

[10] = test system: Candida albicans KCTC 1940; test: Disc-paper clear zone test, antifungal; assay type: cell-based; parameters: key: —: no clear zone; conditions: antibiotic 1 μg/disc; CA
Text: as §1, §2, §3

[11] = test system: Saccharomyces cerevisiae IF0 0233; test: Disc-paper clear zone test, antifungal; assay type: cell-based; parameters: key: —: no clear zone; conditions: antibiotic 1 μg/disc; SC
Text: as §1, §2, §3

human erythrocytes = test: Human erythrocyte hemolytic activity; conditions: 37° C., 30 minutes
Description: In order to evaluate the acute toxicities of the Vespa velutina nigrithorax, V. simillima simillima Smith and V. mandarinia Smith extracts and the fractions thereof, the human erythrocyte hemolytic activities thereof were evaluated. At this time, the hemolytic activity was evaluated according to a previous report (Son Ho-Yong et al., 2014, Korean J. Microbiol. Biotechnol. 42: 285-292). Briefly, 100 μl of human erythrocytes were washed three times with PBS and added to a 96-well microplate, and 100 μl of a sample solution at various concentrations was added thereto and then allowed to react at 37° C. for 30 minutes. Thereafter, the reaction solution was centrifuged at 1,500 rpm for 10 minutes, and 100 μl of the supernatant was transferred to a fresh microtiter plate, and then the degree of hemoglobin leakage following hemolysis was measured at 414 nm. DMSO (2%) was used as a solvent control for the sample, and Triton X-100 (1 mg/ml) was used as an experimental control for hemolysis of erythrocytes. Hemolytic activity was calculated using the following equation.
(%) Hemolysis=[(Abs. S−Abs. C)/(Abs. T−Abs. C)]×100
Abs. S: absorbance of sample-added group
Abs. C: absorbance of DMSO-added group
Abs. T: absorbance of Triton X-100-added group

Compound	Clear zone [1]	Clear zone [2]	Clear zone [3]	Clear zone [4]	Clear zone [5]	Clear zone [6]	Clear zone [7]	Clear zone [8]	zone of inhibition at 1 µg/disc [9]	Clear zone [10]	Clear zone [11]	Human erythrocyte hemolytic activity (human erythrocytes; 1.0 mg/ml)	Human erythrocyte hemolytic activity (human erythrocytes; 0.0032 mg/ml)	Human erythrocyte hemolytic activity (human erythrocytes; 0.0063 mg/ml)	Human erythrocyte hemolytic activity (human erythrocytes; 0.0125 mg/ml)	Human erythrocyte hemolytic activity (human erythrocytes; 0.05 mg/ml)	Human erythrocyte hemolytic activity (human erythrocytes; 0.1 mg/ml)
CC1(C)S[C@@H]2[C@H](NC(=O)[C@H](N)c3ccccc3)C(=O)N2[C@H]1C(=O)O [Ampicillin, ampicillin]	26.0 mm	20.0 mm	16.0 mm	20.0 mm	9.0 mm	23.5 mm	30.0 mm	26.0 mm	9 to 30 mm	—	—						
Triton X-100												100% and 100.0 ± 0.1%					
Clc1ccc(COC(Cn2ccnc2)c2ccc(Cl)cc2Cl)c(Cl)c1 (stereo not drawn) [Miconazole, miconazole]	—	—	—	—	—	—	—	—		8.5 mm	8.5 mm						
C[C@@H]1[C@H](O)[C@@H](C)/C=C/C=C/C=C/C=C/C=C/C=C/C=C/[C@H](O[C@@H]2O[C@H](C)[C@@H](O)[C@H](N)[C@@H]2O)C[C@@H]2O[C@](O)(C[C@@H](O)C[C@@H](O)[C@H](O)CC[C@@H](O)C[C@@H](O)CC(=O)O[C@H]1C)C[C@H](O)[C@H]2C(=O)O [Amphotericin B]													6.5 ± 0.9%	21.6 ± 3.7%	48.2 ± 5.9%	72.4 ± 5.2%	95.8 ± 0.3%
